In US5591758A, “Organic nitrates, processes for their preparation and their use in the treatment of cardiovascular diseases” (Laboratoires Hoechst, SA, priority 1991, dated 1997):
Counter-ions that a name gives are not always drawn.

Experiments:
anesthetised pigs = test: Haemodynamic effects on anesthetised pigs; assay type: in vivo, pigs ("German land" race)
Description: (§1) Haemodynamic effects of the compounds according to the invention on anesthetised pigs or dogs
Pigs are of "German land" race (20-26 kg) and are used after fasting overnight.
In the case of pigs, sedation, analgesia and anesthesia are induced by ketamine HCl (20 mg/kg i.m.), methonidate HCl (10 mg/kg i.m.), xylacine HCl (3 mg/kg i.m.) and sodium pentobarbitol (25-30 mg/kg as bolus i.v. or 0.16 mg/kg/min as i.v. perfusion).
(§2) The pigs or dogs are placed under artificial respiration in ambient air. Analysis of the blood gases (pO2, pCO2) is carried out at regular intervals and oxygen can be supplied via the respirator, if necessary.
(§3) The haemodynamic parameters recorded include the left ventricular pressure (LVP; Millar PC350 Tip catheter inserted via the carotid artery), systemic blood pressure (BPs, BPd; full catheter in a femoral artery), the end pressure of the left ventricular diastole (LVEDP), the ventricular contractility (LVPdp/dtmax) and the heart rate (HR).
The haemodynamic variables are recorded continuously for 1 to 3 hours, as a function of the period of action of the compound.
(§4) The effects of the compounds studied are shown as the absolute difference with respect to the base value (bv) measured before administration of the compounds and are shown in Table VII (a,b,c).
(§5) An antianginal activity is estimated by a fall in the BPs and the LVEDP (fall in venous return).

thoracic aorta = test: Vasorelaxant effect on isolated vessels (rat thoracic aorta rings without endothelium, precontracted with noradrenalin); design: species or system Wistar rats; conditions: for Emax: Rattus norvegicus, maximum inhibition of noradrenalin effect, 10^-8 to 10^-4 M substance, read-out: Maximum Relaxation; for IC50: rat aorta, 10^-7 M noradrenalin contraction
Description: Vasorelaxant effect of the compounds according to the invention on isolated vessels.
Adult Wistar rats weighing between 250 and 350 g are anaesthetised by intraperitoneal injection of sodium pentobarbital (30 mg/kg). The thoracic aorta is rapidly removed and placed in a refrigerated and oxygenated solution of bicarbonate buffer of the Krebs-Ringer type (composition [mM]: NaCl, 118; KCl, 4.7; CaCl2, 2.5; MgSO4, 1.2; KH2 PO4, 1.2; NaHCO3, 25.0; disodium calcium salt of EDTA, 0.026; glucose 11.1). The aorta is dissected with the aim of removing the connective tissue and then cut into 6 rings (length 5-10 mm). The endothelium is removed by moderate abrasion of the intimal surface of the aortic segments with the aid of a pair of tweezers. These segments are then placed between two hooks in an isolated organ cell filled with 25 ml of bicarbonate buffer (pH 7.4), thermostat-controlled at 37° C. and oxygenated with the aid of a 95% O2 /5% CO2 mixture (pH 7.4). One of the hooks is fixed to a fixed point, while the second is connected to a transducer with the aim of measuring the variations in isometric voltage (expressed in grams). After an equilibration period of 30 min., the segments are progressively withdrawn so as to attain the level of base voltage for which the contractor response to noradrenalin (10^-7 M) is maximum (optimum voltage; average 2 g). The absence of endothelium is verified by addition of a single concentration of acetylcholine (10^-6 M), after precontraction of the vessels by noradrenalin (10^-7 M). The integrity of the vascular smooth muscle is also verified by adding a single concentration of a vasodilator whose response is independent of the presence of the endothelium, SIN-1 (10^-5 M). After this initial procedure, the aortas are washed, equilibrated for a period of 30 min and then recontracted (10^-7 M noradrenalin). The relaxant effect of the substance to be tested is then evaluated by adding increasing concentrations of this substance (from 10^-8 to 10^-4 M). The maximum inhibition of the concentration caused by noradrenalin (expressed as a percentage) is then calculated ("maximum relaxation"). When this maximum relaxation is greater than 50%, the concentration of substance tested producing a 50% inhibition of the maximum contraction (IC50) is calculated. Table V below collates the IC50 and the maximum relaxation percentages for the various compounds tested.

anesthetised dogs = test: Haemodynamic effects on anesthetised dogs; assay type: in vivo, dogs (labrador/harrier cross); conditions: dogs
Description: as §1
The dogs, weighing between 16 and 26 kg, are the progeny of a labrador/harrier cross.
In the case of dogs the anesthesia is induced by sodium pentobarbitol (45 mg/jg i.v.) and maintained with an i.v. perfusion (flow rate of 8 mg/kg/h).
as §2, §3
Following an equilibration period of the order of 45 minutes, the compounds studied are administered intraduodenally (i.d.) or intraveinously (i.v.) to several animals (1 to 4). The haemodynamic variables are recorded continuously for 1 to 3 hours, as a function of the period of action of the compound.
as §4, §5

IC50 (thoracic aorta)	SMILES	Emax (thoracic aorta)	BPs (min), period of action (anesthetised dogs; 3 mg/kg i.d.)	BPs, difference to base value (anesthetised dogs; 3 mg/kg i.d.)	LVEDP (min), period of action (anesthetised dogs; 3 mg/kg i.d.)	LVEDP, difference to base value (anesthetised dogs; 3 mg/kg i.d.)	other results
–	CC(=O)NCSc1ccccc1C(=O)O[C@H]1CO[C@H]2[C@@H]1OC[C@H]2O[N+](=O)[O-] [Compound 23]	–	–	–	–	–	BPs, difference to base value (anesthetised pigs; pigs, 10,0 mg/kg i.d.): 0 mmHg; LVRDP, difference to base value (anesthetised pigs; pigs, 10,0 mg/kg i.d.): 0 mmHg
–	O=C(O[C@@H]1CO[C@H]2[C@@H]1OC[C@@H]2O[N+](=O)[O-])c1ccccc1SSc1ccccc1C(=O)O[C@@H]1CO[C@H]2[C@@H]1OC[C@@H]2O[N+](=O)[O-] [Compound 29, Bis[5-O-[(2-thio)benzoyl]-2-O-nitro-1,4:3,6-dianhydro-D-glucitol]]	–	–	–	–	–	BPs (min), period of action (anesthetised pigs; pigs, 3 mg/kg i.v.): 10 min; BPs, difference to base value (anesthetised pigs; pigs, 3 mg/kg i.v.): -42 mmHg; LVRDP (min), period of action (anesthetised pigs; pigs, 3 mg/kg i.v.): 16 min; LVRDP, difference to base value (anesthetised pigs; pigs, 3 mg/kg i.v.): -2,0 mmHg
51 µM	CC(C)[C@H](NC(=O)[C@@H]1CSCN1)C(=O)N[C@H]1CO[C@H]2[C@@H]1OC[C@@H]2O[N+](=O)[O-] [Compound 64, 5-[[2-[[(4-L-thiazolidinyl)carbonyl]amino]-1-((2S)-2-isopropyl)-oxoethyl]amino]-5-deoxy-2-O-nitro-1,4:3,6-dianhydro-L-iditol monohydrochloride]	84%	> 180 min	-25 mmHg	150 min	-2,0 mmHg	–
29 µM	CSCC[C@H](NC(=O)[C@@H]1CSCN1)C(=O)N[C@H]1CO[C@H]2[C@@H]1OC[C@@H]2O[N+](=O)[O-] [Compound 68, 5-[[2-[[(4-n-thiazolidinyl)carbonyl]amino]-1-((2S)-2-(2'-thiomethyl)-ethyl)-oxoethyl]amino]-5-deoxy-2-O-nitro-1,4:3,6-dianhydro-L-iditol monohydrochloride]	90%	–	–	–	–	BPs (min), period of action (anesthetised dogs; 1 mg/kg i.d.): > 180 min; BPs, difference to base value (anesthetised dogs; 1 mg/kg i.d.): -30 mmHg; LVEDP (min), period of action (anesthetised dogs; 1 mg/kg i.d.): > 180 min; LVEDP, difference to base value (anesthetised dogs; 1 mg/kg i.d.): -3,0 mmHg
35 µM	O=C(N[C@H]1CO[C@H]2[C@@H]1OC[C@@H]2O[N+](=O)[O-])[C@@H]1CCCN1C(=O)[C@@H]1CSCN1 [Compound 70, 5-[[[(2S)-N-[(4-L-thiazolidinyl)carbonyl]-2-pyrrolidinyl]carbonyl]amino]-5-deoxy-2-O-nitro-1,4:3,6-dianhydro-L-iditol monohydrochloride]	83%	> 90 min	-30 mmHg	0 min	0,0 mmHg	–
70 µM	O=C(CNC(=O)[C@@H]1CSCN1)N[C@H]1CO[C@H]2[C@@H]1OC[C@H]2O[N+](=O)[O-] [Compound 71, 2-[[2-[[(4-L-thiazolidinyl)carbonyl]]amino]-1-oxoethyl]amino]-2-deoxy-5-O-nitro-1,4:3,6-dianhydro-D-glucitol monohydrochloride]	66%	0 min	0 mmHg	> 60 min	-5,5 mmHg	–
53 µM	O=C(CNC(=O)[C@@H]1CSCN1)O[C@H]1CO[C@H]2[C@@H]1OC[C@H]2O[N+](=O)[O-] [Compound 73, 2-O-[2-[[(4-L-thiazolidinyl)carbonyl]amino]-1-oxoethyl]-5-O-nitro-1,4:3,6-dianhydro-D-glucitol monohydrochloride]	66%	–	–	–	–	BPs (min), period of action (anesthetised dogs; 3 mg/kg i.v.): 60 min; BPs, difference to base value (anesthetised dogs; 3 mg/kg i.v.): -15 mmHg; LVEDP (min), period of action (anesthetised dogs; 3 mg/kg i.v.): 60 min; LVEDP, difference to base value (anesthetised dogs; 3 mg/kg i.v.): -2,0 mmHg
20 µM	O=C(N[C@H]1CO[C@H]2[C@@H]1OC[C@@H]2O[N+](=O)[O-])[C@@H]1CSCN1C(=O)[C@@H]1CSCN1 [Compound 78, 5-[[[(4R)-N-[(4-L-thiazolidinyl)carbonyl]-4-thiazolidinyl]carbonyl]amino]-5-deoxy-2-O-nitro-1,4:3,6-dianhydro-L-iditol monohydrochloride]	89%	150 min	-13 mmHg	90 min	-1,0 mmHg	–

SMILES	IC50 (thoracic aorta)	Emax (thoracic aorta)	BPs (min), period of action (anesthetised dogs; 3 mg/kg i.d.)	BPs, difference to base value (anesthetised dogs; 3 mg/kg i.d.)	LVEDP (min), period of action (anesthetised dogs; 3 mg/kg i.d.)	LVEDP, difference to base value (anesthetised dogs; 3 mg/kg i.d.)	other results
CC(C)(C)OC(=O)N1CSC[C@H]1C(=O)N[C@@H](Cc1ccccc1)C(=O)N[C@H]1CO[C@H]2[C@@H]1OC[C@@H]2O[N+](=O)[O-] [Compound 65, 5-[[2-[[(3-t-butoxycarbonyl-4-L-thiazolidinyl)carbonyl]amino]-1-((2S)-2-benzyl)-oxoethyl]amino]-5-deoxy-2-O-nitro-1,4:3,6-dianhydro-L-iditol]	20 µM	100%	0 min	0 mmHg	30 min	1,0 mmHg	–
CSCC[C@H](NC(=O)[C@@H]1CSCN1C(=O)OC(C)(C)C)C(=O)N[C@H]1CO[C@H]2[C@@H]1OC[C@@H]2O[N+](=O)[O-] [Compound 67, 5-[[2-[[(3-t-butoxycarbonyl-4-L-thiazolidinyl)carbonyl]amino]-1-((2S)-2-(2'-thiomethyl)-ethyl)-oxoethyl]amino]-5-deoxy-2-O-nitro-1,4:3,6-dianhydro-L-iditol]	9 µM	100%	> 90 min	-15 mmHg	> 90 min	-1,5 mmHg	–
CC(C)(C)OC(=O)N1CSC[C@H]1C(=O)N1CCC[C@H]1C(=O)N[C@H]1CO[C@H]2[C@@H]1OC[C@@H]2O[N+](=O)[O-] [Compound 69, 5-[[[(2S)-N-[(3-t-butoxycarbonyl-4-L-thiazolidinyl)carbonyl]-2-pyrrolidinyl]carbonyl]amino]-5-deoxy-2-O-nitro-1,4:3,6-dianhydro-L-iditol]	42 µM	87%	> 150 min	-40 mmHg	> 150 min	-2,5 mmHg	–
CC(C)(C)OC(=O)N1CSC[C@H]1C(=O)NCC(=O)O[C@H]1CO[C@H]2[C@@H]1OC[C@H]2O[N+](=O)[O-] [Compound 72, 2-O-[2-[[(3-t-butoxycarbonyl-4-L-thiazolidinyl)carbonyl]amino]-1-oxoethyl]-5-O-nitro-1,4:3,6-dianhydro-D-glucitol]	64 µM	67%	–	–	–	–	BPs (min), period of action (anesthetised dogs; 10 mg/kg i.v.): 0 min; BPs, difference to base value (anesthetised dogs; 10 mg/kg i.v.): 0 mmHg; LVEDP (min), period of action (anesthetised dogs; 10 mg/kg i.v.): 0 min; LVEDP, difference to base value (anesthetised dogs; 10 mg/kg i.v.): 0,0 mmHg
CC(C)(C)OC(=O)N1CSC[C@H]1C(=O)N1CSC[C@H]1C(=O)N[C@H]1CO[C@H]2[C@@H]1OC[C@@H]2O[N+](=O)[O-] [Compound 77, 5-[[[(4R)-N-[(3-t-butoxycarbonyl-4-L-thiazolidinyl)carbonyl]-4-thiazolidinyl]carbonyl]amino]-5-deoxy-2-O-nitro-1,4:3,6-dianhydro-L-iditol]	40 µM	97%	> 180 min	-35 mmHg	> 180 min	-2,0 mmHg	–
